Key:
Format in all cases: in vivo
[1] = tested on: Subterranean Termite (Reticulitermes virginicus); experiment: Continuous exposure (56 days) to treated paper; details: for LT50 (days) for 200 ppm trt / LC50 / speed of action versus hexaflumuron: continuous exposure
Excerpt: Subterranean Termite (Reticulitermes virginicus)
(§1) Continuous exposure (56 days) to treated paper

[2] = tested on: Subterranean Termite (Reticulitermes flavipes); experiment: Continuous exposure (56 days) to treated paper; details: for performance versus hexaflumuron: Eastern Subterranean termite
Excerpt: (§2) Subterranean Termite (Reticulitermes flavipes)
as §1

[3] = tested on: Cat Flea (Ctenocephalides felis); experiment: Continuous exposure of larvae to treated media, impact on subsequent adult emergence; details: for LC50 / LC90: continuous exposure of larvae, adult emergence
Excerpt: Cat Flea (Ctenocephalides felis)
Continuous exposure of larvae to treated media, impact on subsequent adult emergence

[4] = tested on: Subterranean Termite (Reticulitermes flavipes); experiment: Limited exposure (7 days) with mortality determined at 14, 28, 42, and 56 days; details: for LT50 (days) for 10000 ppm treatment: limited exposure (7 days); for speed of activity, Compound 1 versus hexaflumuron: limited exposure
Excerpt: as §2
Limited exposure (7 days) with mortality determined at 14, 28, 42, and 56 days

[5] = tested on: German cockroach 2nd instars (Blattella germanica); experiment: Continuous, low-dose ingestion exposure (treated cornmeal)
Excerpt: (§3) German cockroach 2nd instars (Blattella germanica)
Continuous, low-dose ingestion exposure (treated cornmeal)

[6] = tested on: Red Imported Fire Ant (RIFA) (Solenopsis invicta); experiment: Laboratory ant bait study, 3-4 day exposure to bait, brood reduction; details: for Time to Achieve 50% Brood Reduction / Time to Achieve 90% Brood Reduction: RIFA, best results achieved with compound
Method: (§4) Laboratory ant bait studies were carried out with Red Imported Fire Ant (RIFA) (Solenopsis invicta) and Pharaoh Ant (Monomorium pharaonis). Chitin synthesis inhibitors, such as the compounds of the invention, control ants by killing the molting larvae and/or pupae and potentially preventing the hatching of eggs. Because adult workers are not affected, control is measured by effects on the brood.
(§5) The studies involved 3-4 day exposure to bait. These limited exposure studies more accurately represent real world bait availability than continuous exposure.

[7] = tested on: German cockroach 2nd instars (Blattella germanica); experiment: Limited ingestion exposure (48 hr) to treated cornmeal; details: for LC50, low / LC50, high: 48 hr limited exposure; for LC50, low: 'low' column (also holds the value where only one is printed); for LC50, high: 'high' column; for potency versus hexaflumuron: limited exposure
Excerpt: as §3
Limited ingestion exposure (48 hr) to treated cornmeal

[8] = tested on: Pharaoh Ant (Monomorium pharaonis); experiment: Laboratory ant bait study, 3-4 day exposure to bait, brood reduction; details: 0.1%, best results achieved with compound
Method: as §4, §5

Daphnia = experiment: Activity against Daphnia, 48 hr exposure to treated water
Excerpt: 48 hr exposure to treated water

[9] = Southeastern subterranean termite

SMILES: O=C(NC(=O)c1c(F)cccc1F)Nc1cc(Cl)c(OC(F)(F)C(F)F)c(Cl)c1 [hexaflumuron, reference compound]
- LT50 (days) for 200 ppm trt [1]: 16.3 days
- LC50 ([1]; 21 days): 28.8 ppm
- LC50 ([1]; 35 days): < 0.78 ppm
- LT50 (days) for 200 ppm trt [2]: 25.7 days
- LC50 ([2]; 21 days): > 200 ppm
- LC50 ([2]; 35 days): < 0.78 ppm
- LC50 [3]: 65.7 ppm
- LC90 [3]: 333.5 ppm
- LT50 (days) for 10000 ppm treatment [4]: 32.9 days
- speed of activity, Compound 1 versus hexaflumuron [4]: comparable in speed of activity
- LC50 ([5]; 21 days): > 200 ppm
- LC50 ([5]; 42 days): > 200 ppm
- Time to Achieve 50% Brood Reduction ([6]; 0.25%): 4 wks
- Time to Achieve 90% Brood Reduction ([6]; 0.25%): 10 wks
- LC50, low ([7]; 21 days): > 10,000 ppm
- LC50, low ([7]; 42 days): > 10,000 ppm

SMILES: O=C(NC(=O)c1c(F)cccc1F)Nc1cc(Cl)c(OC(F)(F)C(F)C(F)(F)F)c(Cl)c1 (stereo not drawn) [Compound 1, N-[3,5-Dichloro-4-(1,1,2,3,3,3-hexafluoropropoxy)phenyl]-N'-(2,6-difluorobenzoyl) urea]
- LT50 (days) for 200 ppm trt [1]: 10.2 days
- LC50 ([1]; 21 days): 3.5 ppm
- LC50 ([1]; 35 days): < 0.78 ppm
- speed of action versus hexaflumuron [1, 9]: faster acting that hexaflumuron
- LT50 (days) for 200 ppm trt [2]: 32.9 days
- LC50 ([2]; 21 days): > 200 ppm
- LC50 ([2]; 35 days): < 0.78 ppm
- performance versus hexaflumuron [2]: no performance advantage
- LC50 [3]: 8.6 ppm
- LC90 [3]: 12.8 ppm
- activity versus hexaflumuron ([3]; fleas): far more active against fleas than was hexaflumuron
- LT50 (days) for 10000 ppm treatment [4]: 34.5 days
- speed of activity, Compound 1 versus hexaflumuron [4]: comparable in speed of activity
- potency versus hexaflumuron [5]: far superior to hexaflumuron
- LC50 ([5]; 21 days): 14.5 ppm
- LC50 ([5]; 42 days): < 0.23 ppm
- Time to Achieve 50% Brood Reduction ([6]; 0.1%): 2-3 wks
- Time to Achieve 90% Brood Reduction ([6]; 0.1%): 4 wks
- potency versus hexaflumuron ([6]; short exposure study with RIFA): significantly more potent than hexaflumuron
- Time to Achieve 50% Brood Reduction [8]: 2 wks
- Time to Achieve 90% Brood Reduction [8]: 4 wks
- LC50, high ([7]; 21 days): 52.7 ppm
- LC50, low ([7]; 21 days): < 1.0 ppm
- LC50, high ([7]; 42 days): 30.1 ppm
- LC50, low ([7]; 42 days): < 1.0 ppm
- potency versus hexaflumuron [7]: far more potent than hexaflumuron

SMILES: CCN(C(=O)Nc1cc(Cl)c(OC(F)(F)C(F)C(F)(F)F)c(Cl)c1)C(=O)c1c(F)cccc1F (stereo not drawn) [Compound 2, N-[3,5-Dichloro-4-(1,1,2,3,3,3-hexafluoropropoxy)phenyl]-N'-(2,6-difluorobenzoyl)-N'-ethyl urea]
- LT50 (days) for 200 ppm trt [2]: 34.6 days
- LC50 ([2]; 21 days): > 200 ppm
- LC50 ([2]; 35 days): 22.5 ppm
- performance versus hexaflumuron [2]: no performance advantage
- LC50 [3]: 329.4 ppm
- LC90 [3]: > 1000 ppm
- potency versus hexaflumuron [5]: far superior to hexaflumuron
- LC50 ([5]; 21 days): 9.3 ppm
- LC50 ([5]; 42 days): 5.4 ppm
- LC50, low ([7]; 21 days): 192.0 ppm
- potency versus hexaflumuron [7]: far more potent than hexaflumuron
- activity against Daphnia versus Compound 1 or hexaflumuron (Daphnia): far less active against Daphnia than were Compound 1 or hexaflumuron

SMILES: CCN(C(=O)NC(=O)c1c(F)cccc1F)c1cc(Cl)c(OC(F)(F)C(F)C(F)(F)F)c(Cl)c1 (stereo not drawn) [Compound 3, N-[3,5-Dichloro-4-(1,1,2,3,3,3-hexafluoro-propoxy)phenyl]-N'-(2,6-difluorobenzoyl)-N-ethylurea]
- LT50 (days) for 200 ppm trt [1]: 9.7 days
- potency versus hexaflumuron ([1]; 21 days of exposure, Southeastern subterranean termite): more potent at 21 days of exposure
- LC50 ([1]; 21 days): 62.4 ppm
- LC50 ([1]; 35 days): < 0.78 ppm
- speed of action versus hexaflumuron [1, 9]: faster acting that hexaflumuron
- performance versus hexaflumuron [2]: no performance advantage
- LC50 [3]: 78.0 ppm
- LC90 [3]: 460.7 ppm
- potency versus hexaflumuron [5]: far superior to hexaflumuron
- LC50 ([5]; 21 days): 1.3 ppm
- LC50 ([5]; 42 days): 0.78 ppm
- LC50, low ([7]; 21 days): 52.2 ppm
- LC50, low ([7]; 42 days): 30.9 ppm
- potency versus hexaflumuron [7]: far more potent than hexaflumuron
- activity against Daphnia versus Compound 1 or hexaflumuron (Daphnia): far less active against Daphnia than were Compound 1 or hexaflumuron
